Data set [1] is described as follows: log P by HPLC on reversed-phase column (C 18), EEC Directive 79/831 Annex V.A8. It is filed as physicochemical. The note with it: reversed-phase C18 HPLC column; HPLC-MS, reversed-phase C 18, 55° C.; acidic or neutral range not stated. The protocol:
The log P values are measured according to EEC Directive 79/831 Annex V.A8 by HPLC (high-performance liquid chromatography) on a reversed-phase column (C 18). Temperature: 55° C. The LC-MS determination in the acidic range is carried out at pH 2.7 using the mobile phases 0.1% aqueous formic acid and acetonitrile (contains 0.1% formic acid); linear gradient from 10% acetonitrile to 95% acetonitrile. The LC-MS determination in the neutral range is carried out at pH 7.8 using the mobile phases 0.001 molar aqueous ammonium bicarbonate solution and acetonitrile; linear gradient from 10% acetonitrile to 95% acetonitrile. Calibration is carried out using unbranched alkan-2-ones (having 3 to 16 carbon atoms) with known log P values (log P values determined on the basis of the retention times by linear interpolation between two successive alkanones).

The subject of the next data set is Phaedon cochleariae. In words: Phaedon cochleariae - spray test. It is filed as in vivo. The note with it: application rate 100 g/ha; Chinese cabbage leaf discs, larvae; after 7 days. The protocol: Phaedon cochleariae—Spray Test
To produce a suitable active ingredient formulation, 1 part by weight of active ingredient is dissolved with the specified parts by weight of solvent and made up to the desired concentration with water containing an emulsifier concentration of 1000 ppm. To produce further test concentrations, the formulation is diluted with emulsifier-containing water.
Discs of Chinese cabbage leaves (Brassica pekinensis) are sprayed with an active ingredient formularation of the desired concentration and, after drying, populated with larvae of the mustard beetle (Phaedon cochleariae).
After 7 days, the efficacy in % is determined. 100% means that all the beetle larvae have been killed; 0% means that no beetle larvae have been killed.

Data set [2] has as its system Myzus persicae. Briefly: Myzus persicae - spray test. It counts as in vivo. The note with it: Chinese cabbage leaf discs, after 5 days. As for the experimental part:
Myzus persicae—Spray Test [table] To produce a suitable active ingredient formulation, 1 part by weight of active ingredient is dissolved with the specified parts by weight of solvent and made up to the desired concentration with water containing an emulsifier concentration of 1000 ppm. To produce further test concentrations, the formulation is diluted with emulsifier-containing water. Discs of Chinese cabbage leaves (Brassica pekinensis) infested by all stages of the green peach aphid (Myzus persicae) are sprayed with an active ingredient formulation of the desired concentration. After 5 days, the efficacy in % is determined. 100% means that all the aphids have been killed; 0% means that no aphids have been killed.

Data set [3] concerns Myzus persicae. In words: Myzus persicae - oral test. It is filed as in vivo. The note with it: application rate 4 ppm; after 5 days; 100% = all aphids killed. As for the experimental part: Myzus persicae—Oral Test Solvent: 100 parts by weight of acetone To produce a suitable active ingredient formulation, 1 part by weight of active ingredient is dissolved with the stated parts by weight of solvent and made up to the desired concentration with water. 50 μl of the active ingredient formulation are transferred into microtitre plates and made up to a final volume of 200 μl with 150 μl of IPL41 insect medium (33%+15% sugar). Subsequently, the plates are sealed with parafilm, which a mixed population of green peach aphids (Myzus persicae) within a second microtitre plate is able to puncture and imbibe the solution. After 5 days, the efficacy in % is determined. 100% means that all the aphids have been killed; 0% means that no aphids have been killed.

In another data set the test system is Spodoptera frugiperda. Briefly: Spodoptera frugiverda - spray test. The note with it: application rate 100 g/ha; maize leaf discs, caterpillars; after 7 days. It counts as in vivo. As for the experimental part:
Spodoptera frugiverda—Spray Test [table] To produce a suitable active ingredient formulation, 1 part by weight of active ingredient is dissolved with the specified parts by weight of solvent and made up to the desired concentration with water containing an emulsifier concentration of 1000 ppm. To produce further test concentrations, the formulation is diluted with emulsifier-containing water. Leaf discs of maize (Zea mays) are sprayed with an active ingredient formulation of the desired concentration and, after drying, populated with caterpillars of the armyworm (Spodoptera frugiperda). After 7 days, the efficacy in % is determined. 100% means that all the caterpillars have been killed; 0% means that no caterpillar has been killed.

The structures appear in SMILES notation.

In general, chromatographic logP refers to lipophilicity estimated from chromatographic retention. Read a low chromatographic logP as lower lipophilicity. On to `CCSc1ccc(Br)nc1-c1nc2cc(C(F)(F)F)nc(C#N)c2n1C` [Example 6, 2-[6-bromo-3-(ethylsulfanyl)pyridin-2-yl]-3-methyl-6-(trifluoromethyl)-3H-imidazo[4,5-c]pyridine-4-carbonitrile], for which, in data set [1], the chromatographic logP came to 3.87.
Regarding `CCS(=O)(=O)c1ccc(-n2cncn2)nc1-c1nc2cc(C(F)(F)F)nc(C)c2n1C` [compound 2], the efficacy with Phaedon cochleariae came to 83%; in the data set with Myzus persicae [2] (application rate 20 g/ha), 90%; in the data set on Myzus persicae [3], 100%.
`CCSc1ccc(Cl)nc1-c1nc2cc(C(F)(F)F)nc(C#N)c2n1C` [Example 5, 2-[6-chloro-3-(ethylsulfanyl)pyridin-2-yl]-3-methyl-6-(trifluoromethyl)-3H-imidazo[4,5-c]pyridine-4-carbonitrile]: the chromatographic logP in data set [1] was determined as 3.84.
The same measure, in the same setting: as for `CCSc1ccc(Br)nc1-c1nc2cc(C(F)(F)F)nc(I)c2n1C` [Example 2, 2-[6-bromo-3-(ethylsulfanyl)pyridin-2-yl]-4-iodo-3-methyl-6-(trifluoromethyl)-3H-imidazo[4,5-c]pyridine], the figure is 4.34; as for `CCSc1ccc(Br)nc1-c1nc2cc(C(F)(F)F)nc(C)c2n1C` [Example 4, 2-[6-bromo-3-(ethylsulfanyl)pyridin-2-yl]-3,4-dimethyl-6-(trifluoromethyl)-3H-imidazo[4,5-c]pyridine], 3.36; as for `CCSc1ccc(Cl)nc1-c1nc2cc(C(F)(F)F)nc(C)c2n1C` [Example 3, 2-[6-chloro-3-(ethylsulfanyl)pyridin-2-yl]-3,4-dimethyl-6-(trifluoromethyl)-3H-imidazo[4,5-c]pyridine], 3.23.
Same read-out and setting: as for `CCSc1ccc(Cl)nc1-c1nc2cc(C(F)(F)F)nc(I)c2n1C` [Example 1, 2-[6-chloro-3-(ethylsulfanyl)pyridin-2-yl]-4-iodo-3-methyl-6-(trifluoromethyl)-3H-imidazo[4,5-c]pyridine], the figure is 4.17.
`CCS(=O)(=O)c1ccc(-n2cncn2)nc1-c1nc2cc(C(F)(F)F)nc(Cl)c2n1C` [compound 3]: the efficacy with Myzus persicae [2] (application rate 20 g/ha), in the data set with Myzus persicae [2] (application rate 100 g/ha), in the data set on Spodoptera frugiperda and in the data set on Myzus persicae [3] was 100% in each case.
Take `CCS(=O)(=O)c1ccc(-n2cncn2)nc1-c1nc2cc(C(F)(F)F)nc(C#N)c2n1C` [Compound No. 1, 2-[3-(ethylsulfonyl)-6-(1H-1,2,4-triazol-1-yl)pyridin-2-yl]-3-methyl-6-(trifluoromethyl)-3H-imidazo[4,5-c]pyridine-4-carbonitrile]: the efficacy in the data set with Phaedon cochleariae came out at 83%; with Myzus persicae [3], 100%.
In data set [1], `CCSc1ccc(Br)nc1-c1nc2cc(C(F)(F)F)nc(Cl)c2n1C` [Example 7, 2-[6-bromo-3-(ethylsulfanyl)pyridin-2-yl]-4-chloro-3-methyl-6-(trifluoromethyl)-3H-imidazo[4,5-c]pyridine] gave a chromatographic logP of 4.18.

These data come from US11072609B2, “Method for preparing halogenated imidazopyridine derivatives” (Bayer Aktiengesellschaft, priority 2017, dated 2021).
